Patent US6048854A, “2,3-diaminopropionic acid derivative” (Sumitomo Pharmaceuticals Company, Limited, priority 1993, dated 2000)
Read-outs that look alike come from different tables or passages of the source.

What was measured:
platelet aggregation [1] = test: Platelet aggregation inhibitory activity (ex vivo) after oral administration; format: in vivo; details: Cavia porcellus, guinea pig, oral 0.1 mg/kg, ADP 10 μg/ml
Procedure: A canula for collecting blood was inserted into the left common carotid artery of a guinea pig which was anesthetized with pentobarbital (30 mg/kg, i.p.). The blood (1 ml) was taken with a syringe containing 1/10 volume of 3.8% sodium citrate (Kettin-citrate, manufactured by Kokusai Shiyaku Ltd.), and the platelet aggregation ability thereof was measured (as a value before administration). Then, a test compound was orally administered to the guinea pig at a dose of 0.1 mg/kg in a volume of 5 ml/kg, and the blood was collected periodically likewise at 0.5, 1, 2, 4 and 6 hours after the administration of the test compound, and the platelet aggregation ability thereof was measured.
The determination of the platelet aggregation ability was carried out by turbidimetry using a Hematracer (Niko Bioscience) as follows. That is, the blood was centrifuged at 4500 rpm at room temperature for 10 seconds, and the supernatant was considered as platelet rich plasma (PRP), and the precipitate was centrifuged at 11000 rpm for two minutes and its supernatant was considered as platelet poor plasma (PPP), and the photo-transmittance of the PRP and the PPP was adjusted to 0%, and 100%, respectively. A cubet containing PRP (200 μl) was inserted to a measurement well, and […] at 1000 rpm at 37° C. for two minutes, and thereto was added a platelet aggregator; ADP (adenosine diphosphate, Sigma Ltd., 20 μl, final concentration; 10 μg/ml), and the maximum aggregation rate was measured. From the maximum aggregation rate before the administration of the test compound (MAR control) and the maximum aggregation rate after the administration of the test compound (MAR sample), the platelet aggregation inhibitory rate of each test compound was estimated according to the following equation.
Inhibitory rate (%)=(1-(MAR sample/MAR control))×100
The periodical change in the platelet aggregation inhibitory rate of each test compound at a dose of 0.1 mg/kg of oral administration is shown in Table 5.

platelet aggregation [2] = test: Platelet aggregation inhibitory activity (ADP-induced, human platelet rich plasma); format: cell-based; details: Homo sapiens
Outline: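 Citrated human platelet-rich plasma […] was stirred with test compound for 2 min at 37 °C. Aggregation was then induced with ADP at 3 μg/ml final and monitored by nephelometry. IC50 is the concentration giving 50% inhibition of aggregation.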

human fibrinogen = molecular target: T1, human fibrinogen (Homo sapiens, UniProt P05106+P08514); test: Binding assay of platelet to adhesive protein: fibrinogen (receptor binding inhibition); details: Table 4; fixed activated human platelets, 37° C., 60 minutes
T1 construct: centrifuged at 11000 rpm for two minutes to give human platelet; from tissue
T1 sequence (P08514 32-887 limits assumed): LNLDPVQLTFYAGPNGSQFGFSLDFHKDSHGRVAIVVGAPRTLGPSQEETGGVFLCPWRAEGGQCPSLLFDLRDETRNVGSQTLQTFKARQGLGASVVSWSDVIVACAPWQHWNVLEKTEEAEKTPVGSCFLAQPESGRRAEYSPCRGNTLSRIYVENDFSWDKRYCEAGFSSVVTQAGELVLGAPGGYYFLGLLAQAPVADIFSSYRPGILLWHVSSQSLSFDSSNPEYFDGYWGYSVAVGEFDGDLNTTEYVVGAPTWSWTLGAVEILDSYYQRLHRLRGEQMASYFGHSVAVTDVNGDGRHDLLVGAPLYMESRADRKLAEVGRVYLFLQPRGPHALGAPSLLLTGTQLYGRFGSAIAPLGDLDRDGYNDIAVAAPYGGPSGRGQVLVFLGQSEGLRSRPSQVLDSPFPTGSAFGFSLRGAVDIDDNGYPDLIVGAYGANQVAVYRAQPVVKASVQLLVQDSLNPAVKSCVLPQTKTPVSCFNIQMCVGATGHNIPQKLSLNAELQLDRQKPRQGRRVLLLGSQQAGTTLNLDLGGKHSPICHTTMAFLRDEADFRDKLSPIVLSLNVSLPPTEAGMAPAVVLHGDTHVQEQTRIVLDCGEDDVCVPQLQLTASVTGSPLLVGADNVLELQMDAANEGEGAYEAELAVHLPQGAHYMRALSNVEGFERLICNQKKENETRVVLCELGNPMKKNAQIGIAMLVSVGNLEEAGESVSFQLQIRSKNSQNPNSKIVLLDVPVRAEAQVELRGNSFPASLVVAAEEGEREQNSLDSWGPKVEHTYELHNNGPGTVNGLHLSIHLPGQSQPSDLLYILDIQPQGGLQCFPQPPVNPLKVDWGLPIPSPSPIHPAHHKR
T1 sequence (P08514 891-1039 limits assumed): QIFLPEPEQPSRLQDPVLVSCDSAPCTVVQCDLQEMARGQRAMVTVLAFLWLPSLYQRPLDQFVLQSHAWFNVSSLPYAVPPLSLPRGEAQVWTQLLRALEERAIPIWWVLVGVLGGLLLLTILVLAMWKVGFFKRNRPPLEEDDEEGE
T1 sequence (P05106 27-788): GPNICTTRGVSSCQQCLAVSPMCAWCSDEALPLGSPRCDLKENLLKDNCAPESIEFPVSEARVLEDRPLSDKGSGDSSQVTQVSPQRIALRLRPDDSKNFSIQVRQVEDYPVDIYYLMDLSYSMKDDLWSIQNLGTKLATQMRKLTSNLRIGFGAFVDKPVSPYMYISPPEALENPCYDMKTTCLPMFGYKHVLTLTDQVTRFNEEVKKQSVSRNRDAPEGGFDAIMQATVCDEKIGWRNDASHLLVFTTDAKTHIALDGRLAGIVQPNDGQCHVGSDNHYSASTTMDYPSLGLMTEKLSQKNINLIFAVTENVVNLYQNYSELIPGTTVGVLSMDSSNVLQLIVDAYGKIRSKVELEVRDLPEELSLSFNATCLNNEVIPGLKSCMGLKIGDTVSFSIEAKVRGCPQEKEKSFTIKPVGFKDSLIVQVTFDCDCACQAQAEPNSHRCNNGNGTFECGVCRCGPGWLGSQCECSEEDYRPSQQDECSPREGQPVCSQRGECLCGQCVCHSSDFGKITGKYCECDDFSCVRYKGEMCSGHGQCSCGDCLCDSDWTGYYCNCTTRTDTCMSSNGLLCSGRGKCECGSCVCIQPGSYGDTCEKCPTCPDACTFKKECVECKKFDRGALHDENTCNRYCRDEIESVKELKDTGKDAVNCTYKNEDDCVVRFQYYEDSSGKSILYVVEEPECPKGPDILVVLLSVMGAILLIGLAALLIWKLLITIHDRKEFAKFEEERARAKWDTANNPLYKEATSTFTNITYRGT
Procedure: (§1) The blood was taken out from the elbow vein of a normal volunteer, and mixed with 1/10 volume of 3.8% sodium citrate. The blood was centrifuged at 1,000 rpm (150 g) for 10 minutes, and the supernatant is collected as a platelet rich plasma (PRP). The precipitates are centrifuged at 11,000 rpm (6000 g) for two minutes, and the supernatant is collected as a platelet poor plasma (PPP). To PRP is added prostaglandin I2 (PGl2) at a final concentration of 50 ng/ml, and the mixture was centrifuged at 11000 rpm for two minutes to give human platelet. The platelet was activated by washing with 3.8 mM HEPES-buffer (pH 7.4, Tyrode-HEPES buffer) containing 0.14 M sodium chloride, 2.7 mM potassium chloride, 3.7 mM sodium dihydrogen phosphate, 0.98 mM magnesium chloride, 1 mg/ml glucose, 50 ng/ml PGl2 and 0.35% bovine serum albumin (BSA), adding thereto 5 μM epinephrine, and 30 μM ADP (adenosine diphosphate), followed by being allowed to stand at room temperature for five minutes. To the activated platelet was added 0.05% p-formaldehyde, and the mixture was allowed to stand at room temperature for 30 minutes to give the fixed platelet, which was suspended in Tyrode-HEPES buffer to give a platelet suspension of a concentration of 2×10^8 ml^-1.
(§2) Human fibrinogen from which fibronectin was previously removed by passing through gelatin-cepharose, human fibronectin or human vitronectin was diluted with 0.1 M aqueous sodium hydrogen carbonate solution to a concentration of 5 μg/ml, and the protein solution is put into a 96-well microplate at a volume of 200 μl/well. The microplate was allowed to stand at 4° C. overnight. The plate was washed with phosphate buffered saline (PBS), and subjected to blocking with 3% BSA at 37° C. for one hour. To the plate were added a platelet suspension (final concentration, 10^8 ml^-1) and a test compound of various concentrations (total volume, 200 μl/well), and the plate was incubated at 37° C. for 60 minutes. The plate was treated with 1000-fold diluted enzyme (HRP)-labelled anti-mouse IgG polyclonal antibody at 37° C. for 60 minutes, and thereto was added HRP chromogenic substrate (0.1 M phosphate buffer containing 0.4 mg/ml O-phenylenediamine,0.01% hydrogen peroxide, 0.1 M citric acid, pH 5), and reacted at room temperature for 15 minutes. The reaction was terminated by adding thereto 4.5 M sulfuric acid at a volume of 25 μl/well, and the absorbance at 490 nm was measured.

human vitronectin = test: Binding assay of platelet to adhesive protein: vitronectin (receptor binding inhibition); details: Table 4; fixed activated human platelets, 37° C., 60 minutes; read-out: receptor binding inhibition (IC50), Bitronectin
Procedure: as §1, §2

human fibronectin = test: Binding assay of platelet to adhesive protein: fibronectin (receptor binding inhibition); details: Table 4; fixed activated human platelets, 37° C., 60 minutes
Procedure: as §1, §2

[3] = 0.5 hr, read-out: platelet aggregation inhibitory rate (%), 0.5 hr
[4] = 1 hr, read-out: platelet aggregation inhibitory rate (%), 1 hr
[5] = 2 hrs, read-out: platelet aggregation inhibitory rate (%), 2 hrs
[6] = 4 hrs, read-out: platelet aggregation inhibitory rate (%), 4 hrs
[7] = 6 hrs, read-out: platelet aggregation inhibitory rate (%), 6 hrs
[8] = Table 2, same manner as Example 17
[9] = Table 3, same manner as Example 17

SMILES	inhibition in vivo at 0.1 mg/kg (platelet aggregation [1]; [3])	inhibition in vivo at 0.1 mg/kg (platelet aggregation [1]; [4])	inhibition in vivo at 0.1 mg/kg (platelet aggregation [1]; [5])	inhibition in vivo at 0.1 mg/kg (platelet aggregation [1]; [6])	inhibition in vivo at 0.1 mg/kg (platelet aggregation [1]; [7])	IC50 (platelet aggregation [2]; [8])	IC50 (human fibrinogen)	IC50 (human vitronectin)	IC50 (human fibronectin)	IC50 (platelet aggregation [2]; [9])
N=C(N)c1ccc(N2CCC(CC(=O)NC[C@H](NS(=O)(=O)c3ccccc3)C(=O)O)CC2)cc1 [Example 69, (2S)-3-(2-(1-(4-amidinophenyl)-4-piperidyl)ethanoylamino)-2-benzenesulfonylaminopropanoic Acid]	69%	39%	22%	6%	3%	29 nM	9.8 nM	970 nM	60 nM	
N=C(N)c1ccc(C(=O)NCCC(=O)NC[C@H](NS(=O)(=O)c2ccccc2C(F)(F)F)C(=O)O)cc1 [Example 21, (2S)-3-(3-(4-amidinobenzoylamino)propanoylamino)-2-(2-trifluoromethyl)benzenesulfonylaminopropanoic Acid]	96%	99%	100%	100%	100%	15 nM	2.2 nM	240 nM	310 nM	
CCc1ccc(S(=O)(=O)N[C@@H](CNC(=O)CCCOc2ccc(C(=N)N)cc2)C(=O)O)cc1 [Example 83, (2S)-3-(4-(4-amidinophenoxy)butanoylamino)-2-(4-ethyl)benzenesulfonylaminopropanoic Acid]	50%	47%	48%	32%	41%		22 nM	7800 nM	770 nM	30 nM
N=C(N)c1ccc(C(=O)NCCC(=O)NC[C@H](NS(=O)(=O)c2ccc(F)cc2)C(=O)O)cc1 [Example 78, (2S)-3-(3-(4-amidinobenzoylamino)propanoylamino)-2-(4-fluoro)benzenesulfonylaminopropanoic Acid]	99%	100%	100%	100%	100%		9 nM	160 nM	25 nM	16 nM
Cc1cc(C)c(S(=O)(=O)N[C@@H](CNC(=O)CCNC(=O)c2ccc(C(=N)N)cc2)C(=O)O)c(C)c1 [Example 19, (2S)-3-(3-(4-amidinobenzoylamino)propanoylamino)-2-(2,4,6-trimethyl)benzenesulfonylaminopropanoic Acid]	86%	93%	91%	89%	91%	30 nM	5 nM	1200 nM	47 nM	
N=C(N)c1ccc(OCCCC(=O)NC[C@H](NS(=O)(=O)c2cccc3ccccc23)C(=O)O)cc1 [Example 62, (2S)-3-(4-(4-amidinophenoxy)butanoylamino)-2-(1-naphthalene)sulfonylaminopropanoic Acid]	63%	69%	63%	56%	50%	26 nM	1.1 nM	240 nM	4.5 nM	
COc1ccc(S(=O)(=O)N[C@@H](CNC(=O)CCNC(=O)c2ccc(C(=N)N)cc2)C(=O)O)cc1 [Example 18, (2S)-3-(3-(4-amidinobenzoylamino)propanoylamino)-2-(4-methoxy)benzenesulfonylaminopropanoic Acid]	54%	100%	100%	73%	66%	33 nM	7.3 nM	8900 nM	400 nM	
N=C(N)c1ccc(OCCCCC(=O)NC[C@H](NS(=O)(=O)c2ccccc2)C(=O)O)cc1 [Example 64, (2S)-3-(5-(4-amidinophenoxy)pentanoylamino)-2-benzenesulfonylaminopropanoic Acid]	50%	0%	0%	0%	0%	32 nM	24 nM	4800 nM	280 nM	
Cc1ccccc1S(=O)(=O)N[C@@H](CNC(=O)CCNC(=O)c1ccc(C(=N)N)cc1)C(=O)O [Example 74, (2S)-3-(3-(4-amidinobenzoylamino)propanoylamino)-2-(2-methyl)benzenesulfonylaminopropanoic Acid]	92%	100%	100%	100%	100%		22 nM	3500 nM	540 nM	14 nM
Cc1cc(C)c(S(=O)(=O)N[C@@H](CNC(=O)CCCCc2ccc(C(=N)N)cc2)C(=O)O)c(C)c1 [Example 87, (2S)-3-(5-(4-amidinophenyl)pentanoylamino)-2-(2,4,6-trimethyl)benzenesulfonylaminopropanoic Acid]	100%	100%	100%	100%	80%		12 nM	2700 nM	210 nM	25 nM
CCc1ccc(S(=O)(=O)N[C@@H](CNC(=O)CCNC(=O)c2ccc(C(=N)N)cc2)C(=O)O)cc1 [Example 80, (2S)-3-(3-(4-amidinobenzoylamino)propanoylamino)-2-(4-ethyl)benzenesulfonylaminopropanoic Acid]	100%	100%	75%	79%	74%		10 nM	4900 nM	390 nM	17 nM
